Results reported in BindingDB's records for PubMed 38943600 (China Pharmaceutical University).
*1 amine or outer side, *2 acyl side, *3 side chain or, on linkers, in order; H or OH if unused. Where a SMILES comes first, the peptide text is derived from it. The star is where a group is joined. ξ: configuration not given here. X6 = Nc1ccn(C2OC(COC(=O)CCCCCN3C(=O)CC(*)C3=O)C(O)C2(F)F)c(=O)n1; C18 diacid = O=C(O)CCCCCCCCCCCCCCCCC(=O)*; ξγGlu = O=C(O)C(CCC(=O)[*:2])N[*:1]; AEEA = NCCOCCOCC(=O)O

Target: Inactive tyrosine-protein kinase transmembrane receptor ROR1 (Homo sapiens, UniProt Q01973)
Experiment: Binding affinity to N-terminal His/GST-tagged recombinant human ROR1 (453 to 783 residues) extracted from baculovirus infected insect cells assessed as dissociation constant by SPR analysis

Inactive tyrosine-protein kinase transmembrane receptor ROR1, sequence (Q01973 whole entry, the tested form may be a part): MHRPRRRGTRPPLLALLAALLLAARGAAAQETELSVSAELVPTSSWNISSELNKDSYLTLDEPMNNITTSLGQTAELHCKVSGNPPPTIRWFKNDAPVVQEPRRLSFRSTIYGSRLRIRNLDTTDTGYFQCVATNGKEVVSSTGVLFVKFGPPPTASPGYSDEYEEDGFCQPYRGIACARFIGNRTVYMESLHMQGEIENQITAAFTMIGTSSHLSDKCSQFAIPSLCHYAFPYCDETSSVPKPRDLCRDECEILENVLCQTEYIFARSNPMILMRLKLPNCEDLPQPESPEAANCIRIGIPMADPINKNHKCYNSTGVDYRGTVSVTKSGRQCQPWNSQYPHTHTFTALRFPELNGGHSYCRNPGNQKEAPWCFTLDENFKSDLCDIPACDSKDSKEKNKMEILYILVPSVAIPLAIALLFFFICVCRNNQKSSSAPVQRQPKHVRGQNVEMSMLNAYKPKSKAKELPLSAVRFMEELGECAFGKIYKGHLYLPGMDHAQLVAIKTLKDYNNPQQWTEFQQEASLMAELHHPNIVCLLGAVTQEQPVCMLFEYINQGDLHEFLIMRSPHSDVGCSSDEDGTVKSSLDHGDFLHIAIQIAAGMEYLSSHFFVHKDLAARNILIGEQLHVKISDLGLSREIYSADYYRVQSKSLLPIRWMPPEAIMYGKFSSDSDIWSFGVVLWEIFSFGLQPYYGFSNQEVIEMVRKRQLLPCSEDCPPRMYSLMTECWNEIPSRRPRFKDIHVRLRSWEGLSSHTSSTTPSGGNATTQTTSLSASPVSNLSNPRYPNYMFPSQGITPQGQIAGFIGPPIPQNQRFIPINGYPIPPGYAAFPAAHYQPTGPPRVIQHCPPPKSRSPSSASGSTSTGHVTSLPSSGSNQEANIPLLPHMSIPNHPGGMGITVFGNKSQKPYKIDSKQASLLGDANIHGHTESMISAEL

In the case of `CC[C@H](C)[C@H](NC(=O)[C@H](CC(=O)O)NC(=O)[C@H](CO)NC(=O)CNC(=O)[C@H](CSC1CC(=O)N(CCCCCC(=O)OCC2OC(n3ccc(N)nc3=O)C(F)(F)C2O)C1=O)NC(=O)CNC(=O)[C@H](CCCCN)NC(=O)COCCOCCNC(=O)COCCOCCNC(=O)CCC(NC(=O)CCCCCCCCCCCCCCCCC(=O)O)C(=O)O)C(=O)N[C@@H](CC(N)=O)C(=O)N[C@@H](CC(=O)O)C(=O)N[C@@H](CCCNC(=N)N)C(=O)N[C@@H](CCC(N)=O)C(=O)N[C@H](C(=O)N1CCC[C@H]1C(=O)NCC(=O)N[C@@H](Cc1ccc(O)cc1)C(=O)N[C@@H](CO)C(=O)N[C@H](C(=O)N[C@@H](Cc1ccc(O)cc1)C(=O)N[C@@H](Cc1c[nH]c2ccccc12)C(=O)NCC(=O)N[C@@H](CC(=O)O)C(=O)N[C@@H](Cc1ccccc1)C(N)=O)[C@@H](C)O)[C@@H](C)CC` (stereo partly specified) ({C18 diacid-ξγGlu-AEEA-AEEA}-KGC(X6)GSDINDRQIPGYSTYWGDF-NH2), the Kd is reported as 1.2 nM.
